The values that follow come from US9586951B2 (FUJIFILM Corporation, priority 2013, dated 2017).

In this test the target is T1, ATM (Homo sapiens, UniProt Q13315).
T1 construct: detecting phosphorylation of Chk2 in a human non-small cell lung cancer cell line NCI-H460 (ATCC company); host or cells: NCI-H460 human non-small cell lung cancer cells
T1 sequence (Q13315 whole entry): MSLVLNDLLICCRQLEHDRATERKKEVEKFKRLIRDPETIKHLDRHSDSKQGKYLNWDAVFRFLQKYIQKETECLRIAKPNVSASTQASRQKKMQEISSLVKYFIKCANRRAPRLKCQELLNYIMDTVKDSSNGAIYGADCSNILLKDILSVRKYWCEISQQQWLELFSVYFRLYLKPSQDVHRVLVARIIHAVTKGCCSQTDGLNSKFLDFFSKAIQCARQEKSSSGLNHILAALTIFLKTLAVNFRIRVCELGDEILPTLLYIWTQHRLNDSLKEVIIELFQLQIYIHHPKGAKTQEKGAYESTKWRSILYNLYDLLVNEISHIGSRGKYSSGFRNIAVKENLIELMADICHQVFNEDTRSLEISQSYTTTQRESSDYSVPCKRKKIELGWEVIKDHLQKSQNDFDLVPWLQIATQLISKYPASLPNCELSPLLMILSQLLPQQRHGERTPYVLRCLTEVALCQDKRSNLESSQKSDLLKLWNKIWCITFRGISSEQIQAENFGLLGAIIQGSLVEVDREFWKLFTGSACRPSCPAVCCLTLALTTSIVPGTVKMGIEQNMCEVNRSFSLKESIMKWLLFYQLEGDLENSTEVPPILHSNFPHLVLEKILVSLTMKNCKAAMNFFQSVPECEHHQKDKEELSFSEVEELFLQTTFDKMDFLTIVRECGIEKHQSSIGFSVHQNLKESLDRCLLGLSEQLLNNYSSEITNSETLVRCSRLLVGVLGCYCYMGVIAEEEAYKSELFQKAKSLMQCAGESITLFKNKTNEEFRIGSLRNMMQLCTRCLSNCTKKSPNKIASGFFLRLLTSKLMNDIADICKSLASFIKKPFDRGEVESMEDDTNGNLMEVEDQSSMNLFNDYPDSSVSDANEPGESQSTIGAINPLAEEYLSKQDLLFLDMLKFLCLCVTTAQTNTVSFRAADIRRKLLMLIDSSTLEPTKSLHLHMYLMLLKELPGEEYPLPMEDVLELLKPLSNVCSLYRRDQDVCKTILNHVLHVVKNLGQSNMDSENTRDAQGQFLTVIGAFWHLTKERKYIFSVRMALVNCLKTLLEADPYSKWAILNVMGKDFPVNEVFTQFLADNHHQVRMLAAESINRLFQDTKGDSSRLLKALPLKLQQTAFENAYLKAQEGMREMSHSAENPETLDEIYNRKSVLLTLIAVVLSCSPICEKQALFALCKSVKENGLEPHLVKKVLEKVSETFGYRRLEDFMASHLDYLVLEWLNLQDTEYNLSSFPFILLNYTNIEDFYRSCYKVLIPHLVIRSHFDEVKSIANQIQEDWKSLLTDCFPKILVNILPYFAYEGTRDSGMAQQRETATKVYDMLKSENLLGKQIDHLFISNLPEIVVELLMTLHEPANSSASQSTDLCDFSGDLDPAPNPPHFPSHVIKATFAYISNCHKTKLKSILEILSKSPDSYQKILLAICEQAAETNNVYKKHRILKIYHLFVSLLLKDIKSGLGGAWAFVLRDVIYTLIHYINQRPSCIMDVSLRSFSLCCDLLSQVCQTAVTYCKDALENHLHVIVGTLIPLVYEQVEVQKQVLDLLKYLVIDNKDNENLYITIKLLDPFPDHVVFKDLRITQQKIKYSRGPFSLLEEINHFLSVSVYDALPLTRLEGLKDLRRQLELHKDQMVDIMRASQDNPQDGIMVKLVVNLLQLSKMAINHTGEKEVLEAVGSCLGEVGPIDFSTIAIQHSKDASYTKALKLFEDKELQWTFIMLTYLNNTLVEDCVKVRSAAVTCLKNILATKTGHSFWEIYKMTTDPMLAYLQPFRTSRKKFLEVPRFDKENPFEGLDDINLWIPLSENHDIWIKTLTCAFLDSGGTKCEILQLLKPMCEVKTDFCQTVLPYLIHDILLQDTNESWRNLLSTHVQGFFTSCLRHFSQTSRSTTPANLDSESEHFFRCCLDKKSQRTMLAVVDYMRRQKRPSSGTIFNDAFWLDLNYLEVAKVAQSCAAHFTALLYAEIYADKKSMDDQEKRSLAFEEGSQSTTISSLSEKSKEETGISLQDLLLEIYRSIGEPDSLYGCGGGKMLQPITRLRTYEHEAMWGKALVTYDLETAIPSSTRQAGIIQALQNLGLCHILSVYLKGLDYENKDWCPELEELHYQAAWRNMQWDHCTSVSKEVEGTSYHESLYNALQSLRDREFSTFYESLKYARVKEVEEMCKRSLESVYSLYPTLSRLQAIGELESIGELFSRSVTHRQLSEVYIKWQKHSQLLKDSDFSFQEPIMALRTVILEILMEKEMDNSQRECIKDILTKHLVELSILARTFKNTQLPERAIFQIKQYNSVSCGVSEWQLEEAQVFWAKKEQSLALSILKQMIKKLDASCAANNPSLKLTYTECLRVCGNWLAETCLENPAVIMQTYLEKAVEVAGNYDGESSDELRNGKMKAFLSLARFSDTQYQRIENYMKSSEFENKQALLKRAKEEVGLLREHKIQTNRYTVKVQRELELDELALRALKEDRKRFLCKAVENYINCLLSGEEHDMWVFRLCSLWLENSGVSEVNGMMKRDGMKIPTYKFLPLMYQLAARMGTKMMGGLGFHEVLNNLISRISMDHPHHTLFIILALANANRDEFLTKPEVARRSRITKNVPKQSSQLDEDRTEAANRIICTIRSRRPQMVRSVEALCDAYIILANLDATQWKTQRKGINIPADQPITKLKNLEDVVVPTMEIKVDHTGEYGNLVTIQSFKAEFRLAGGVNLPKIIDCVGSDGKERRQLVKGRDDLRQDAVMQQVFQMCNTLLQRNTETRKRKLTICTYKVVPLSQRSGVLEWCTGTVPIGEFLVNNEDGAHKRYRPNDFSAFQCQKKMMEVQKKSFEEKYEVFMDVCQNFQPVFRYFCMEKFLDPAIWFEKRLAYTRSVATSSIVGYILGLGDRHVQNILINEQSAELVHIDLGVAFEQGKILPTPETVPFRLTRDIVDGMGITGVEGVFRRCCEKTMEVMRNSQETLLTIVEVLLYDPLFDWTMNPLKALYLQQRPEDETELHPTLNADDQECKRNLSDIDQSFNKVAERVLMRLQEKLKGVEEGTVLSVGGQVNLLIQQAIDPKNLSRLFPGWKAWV
The test is described as follows: ATM inhibition test (phosphorylation of Chk2 generated by ionizing radiation, AlphaScreen SureFire). The following applies: phosphorylated Chk2 in NCI-H460 cells, ionizing radiation 8Gy, 1 hour after test compound treatment; read-out: ATM inhibitory activity. The format is cell-based. In short, it runs like this:
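Phosphorylated Chk2 read by AlphaScreen SureFire in human non-small cell lung cancer NCI-H460 cells, 1 hour after 8Gy ionizing radiation at 37° C. Compound added 1 hour before irradiation. Percent inhibition normalised between irradiated and non-irradiated drug-untreated signals.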
Background: In Alpha technology, singlet oxygen from a donor bead excites a nearby acceptor bead.
With `Cc1ccc(C(C[C@@H]2CCCN2C)Nc2ccc3c(c2)Sc2cccc(-c4cc(N5CCOCC5)cc(=O)[nH]4)c2S3)nc1` (single isomer, unassigned) [Example 12-2], the IC50 fell in the range of 100 to 500 nM. As for `COC[C@H](CN(C(C)C)C(C)C)Nc1ccc2c(c1)Sc1cccc(-c3cc(N4CCOCC4)cc(=O)[nH]3)c1S2` [Example 1-46-14, (S)-6-(7-((1-(Diisopropylamino)-3-methoxypropan-2-yl)amino)thianthren-1-yl)-4-morpholino pyridin-2(1H)-one], the figure is 100 to 500 nM; as for `O=c1cc(N2CCOCC2)cc(-c2cccc3c2Oc2ccc(NC4CCN(Cc5ccco5)CC4)cc2C3)[nH]1` [Example 2-28-27, 6-(7-((1-(Furan-2-ylmethyl)piperidin-4-yl)amino)-9H-xanthen-4-yl)-4-morpholino pyridin-2(1H)-one], 100 to 500 nM. The result for `Cn1cc(CNc2ccc3c(c2)Cc2cccc(-c4cc(N5CCOCC5)cc(=O)[nH]4)c2O3)ccc1=O` [Example 2-2-45, 1-Methyl-5-(((5-(4-morpholino-6-oxo-1,6-dihydropyridin-2-yl)-9H-xanthen-2-yl)amino)methyl) pyridin-2(1H)-one] reads 500 to 2000 nM; that for `COc1ccc(CCN2CCC(Nc3ccc4c(c3)Sc3cccc(-c5cc(N6CCOCC6)cc(=O)[nH]5)c3S4)CC2)cc1` [Example 1-27, 6-(7-((1-(4-methoxyphenethyl)piperidin-4-yl)amino)thianthren-1-yl)-4-morpholinopyridin-2(1H)-one], 100 to 500 nM; that for `O=c1cc(N2CCOCC2)cc(-c2cccc3c2Oc2ccc(NCc4cccc(C(F)(F)F)c4)cc2C3)[nH]1` [Example 2-3-14, 4-Morpholino-6-(7-((3-(trifluoromethyl)benzyl)amino)-9H-xanthen-4-yl) pyridin-2(1H)-one], 100 to 500 nM.

On to `COCCNCc1cccc(C(C)Nc2ccc3c(c2)Sc2cccc(-c4cc(N5CCOCC5)cc(=O)[nH]4)c2S3)n1` (stereo not shown) [Example 1-20-9, 6-(7-((1-(6-(((2-Methoxyethyl)amino)methyl)pyridin-2-yl)ethyl)amino)thianthren-1-yl)-4-morpholino pyridin-2 (1H)-one], for which the IC50 is 100 to 500 nM. Consider `COc1ccncc1CNc1ccc2c(c1)Cc1cccc(-c3cc(N4CCOCC4)cc(=O)[nH]3)c1O2` [Example 2-2-34, 6-(7-(((4-Methoxypyridin-3-yl)methyl)amino)-9H-xanthen-4-yl)-4-morpholino pyridin-2(1H)-one], for which the IC50 is 500 to 2000 nM. As for `O=c1cc(N2CCOCC2)cc(-c2cccc3c2Oc2ccc(NC4CCN(CCc5ccccc5)CC4)cc2C3)[nH]1` [Example 2-28-29, 4-Morpholino-6-(7-((1-phenethylpiperidin-4-yl)amino)-9H-xanthen-4-yl) pyridin-2(1H)-one], the figure is 100 to 500 nM; as for `COCC(CN1CCN(C)CC1)Nc1ccc2c(c1)Sc1cccc(-c3cc(N4CCOCC4)cc(=O)[nH]3)c1S2` (stereo not shown) [Example 1-17-3, 6-(7-((1-Methoxy-3-(4-methylpiperazin-1-yl)propan-2-yl)amino)thianthren-1-yl)-4-morpholinopyridin-2(1H)-one], 100 to 500 nM; as for `CC(CN1CC(C)OC(C)C1)Nc1ccc2c(c1)Sc1cccc(-c3cc(N4CCOCC4)cc(=O)[nH]3)c1S2` (stereo not shown) [Example 1-13-11, 6-(7-((1-(2,6-Dimethylmorpholino)propan-2-yl)amino)thianthren-1-yl)-4-morpholino pyridin-2(1H)-one], under 100 nM.

Consider `CC(CCNc1ccc2c(c1)Sc1cccc(-c3cc(N4CCOCC4)cc(=O)[nH]3)c1S2)N1CCOCC1` (stereo not shown) [Example 8-2, 4-Morpholino-6-(7-((3-morpholinobutyl)amino)thianthren-1-yl)pyridin-2(1H)-one], for which the IC50 was in the range of 100 to 500 nM.

On to `N#Cc1cccc(CNc2cccc3c2Cc2cccc(-c4cc(N5CCOCC5)cc(=O)[nH]4)c2O3)c1` [Example 2-56-4, 3-(((5-(4-Morpholino-6-oxo-1,6-dihydropyridin-2-yl)-9H-xanthen-1-yl)amino)methyl)benzonitrile], for which the IC50 is 100 to 500 nM. The result for `O=c1cc(N2CCOCC2)cc(-c2cccc3c2Oc2ccc(NC4CCN(Cc5ccoc5)CC4)cc2C3)[nH]1` [Example 2-28-28, 6-(7-((1-(Furan-3-ylmethyl)piperidin-4-yl)amino)-9H-xanthen-4-yl)-4-morpholino pyridin-2(1H)-one] reads 100 to 500 nM; that for `Cc1ccc(C(Nc2ccc3c(c2)Sc2cccc(-c4cc(N5CCOCC5)cc(=O)[nH]4)c2S3)[C@@H]2CCCN2C)nc1` (single isomer, unassigned) [Example 1-56-2], 100 to 500 nM. The result for `O=c1cc(N2CCOCC2)cc(-c2cccc3c2Oc2ccc(NCc4ccc(CO)o4)cc2C3)[nH]1` [Example 2-13-3, 6-(7-(((5-(Hydroxymethyl)furan-2-yl)methyl)amino)-9H-xanthen-4-yl)-4-morpholino pyridin-2(1H)-one] reads 500 to 2000 nM; that for `CN(C)C1CCN(c2cccc(CNc3ccc4c(c3)Sc3cccc(-c5cc(N6CCOCC6)cc(=O)[nH]5)c3S4)n2)C1` (stereo not shown) [Example 1-12-35, 6-(7-(((6-(3-(Dimethylamino)pyrrolidin-1-yl)pyridin-2-yl)methyl)amino)thianthren-1-yl)-4-morpholino pyridin-2 (1H)-one], 100 to 500 nM; that for `O=c1cc(N2CCOCC2)cc(-c2cccc3c2Sc2ccc(NC(CF)CN4CCOCC4)cc2S3)[nH]1` (single isomer, unassigned) [Example 1-41-1-3, 6-(7-((1-fluoro-3-morpholinopropan-2-yl)amino)thianthren-1-yl)-4-morpholinopyridin-2(1H)-one], 100 to 500 nM. The result for `O=c1cc(N2CCOCC2)cc(-c2cccc3c2Oc2ccc(NC4CCN(CCc5ccccn5)CC4)cc2C3)[nH]1` [Example 2-30-3, 4-Morpholino-6-(7-((1-(2-(pyridin-2-yl)ethyl)piperidin-4-yl)amino)-9H-xanthen-4-yl)pyridin-2(1H)-one] reads 500 to 2000 nM; that for `Cc1cc(CNc2ccc3c(c2)Cc2ccnc(-c4cc(N5CCOCC5)cc(=O)[nH]4)c2O3)ccn1` [Example 2-42-3, 6-(7-(((2-Methylpyridin-4-yl)methyl)amino)-5H-chromeno[2,3-c]pyridin-1-yl)-4-morpholinopyridin-2(1H)-one], 100 to 500 nM. As for `COc1cncc(CNc2ccc3c(c2)Cc2cccc(-c4cc(N5CCOCC5)cc(=O)[nH]4)c2N3C)c1` [Example 7, 6-(7-(((5-Methoxypyridin-3-yl)methyl)amino)-10-methyl-9,10-dihydroacridin-4-yl)-4-morpholinopyridin-2(1H)-one], the IC50 lay in the range of 500 to 2000 nM. In the case of `CC(Nc1ccc2c(c1)Cc1cccc(-c3cc(N4CCOCC4)cc(=O)[nH]3)c1O2)c1cccc(F)n1` (single isomer, unassigned) [Example 2-14-87-2, 6-(7-((1-(6-fluoropyridin-2-yl)ethyl)amino)-9H-xanthen-4-yl)-4-morpholinopyridin-2(1H)-one], the IC50 was 100 to 500 nM. The result for `CC1CCCN(CC(CO)Nc2ccc3c(c2)Sc2cccc(-c4cc(N5CCOCC5)cc(=O)[nH]4)c2S3)C1` (stereo not shown) [Example 1-37-1, 6-(7-((1-hydroxy-3-(3-methylpiperidin-1-yl)propan-2-yl)amino)thianthren-1-yl)-4-morpholinopyridin-2(1H)-one] reads 100 to 500 nM. As for `Cc1ccc(C(Nc2ccc3c(c2)Sc2cccc(-c4cc(N5CCOCC5)cc(=O)[nH]4)c2S3)C2CCN(CCF)CC2)nc1` (stereo not shown) [Example 1-56-6, 6-(7-(((1-(2-Fluoroethyl)piperidin-4-yl)(5-methylpyridin-2-yl)methyl)amino)thianthren-1-yl)-4-morpholino pyridin-2(1H)-one], the figure is under 100 nM; as for `CNc1ncccc1CNc1ccc2c(c1)Cc1cccc(-c3cc(N4CCOCC4)cc(=O)[nH]3)c1O2` [Example 2-2-26, 6-(7-(((2-(Methylamino)pyridin-3-yl)methyl)amino)-9H-xanthen-4-yl)-4-morpholino pyridin-2(1H)-one], 100 to 500 nM; as for `COc1ccccc1CCN1CCC(Nc2ccc3c(c2)Cc2cccc(-c4cc(N5CCOCC5)cc(=O)[nH]4)c2O3)CC1` [Example 2-30-10, 6-(7-((1-(2-Methoxyphenethyl)piperidin-4-yl)amino)-9H-xanthen-4-yl)-4-morpholino pyridin-2(1H)-one], 500 to 2000 nM.

For the compound `O=c1cc(N2CCOCC2)cc(-c2nccc3c2Oc2ccc(NCc4cc(C5CC5)ccn4)cc2C3)[nH]1` [Example 2-41-6, 6-(7-(((4-Cyclopropylpyridin-2-yl)methyl)amino)-5H-chromeno[2,3-c]pyridin-1-yl)-4-morpliolino pyridin-2 (1H)-one], the IC50 was in the range of 100 to 500 nM. As for `O=c1cc(N2CCOCC2)cc(-c2cccc3c2Sc2ccc(NC4CCC(N5CCOCC5)CC4)cc2S3)[nH]1` (stereo not shown) [Example 1-36-1, 4-Morpholino-6-(7-((4-morpholinocyclohexyl)amino)thianthren-1-yl)pyridin-2(1H)-one], the figure is 100 to 500 nM. As for `CN1CCC(Nc2ccc3c(c2)Cc2cccc(-c4cc(N5CCOCC5)cc(=O)[nH]4)c2S3)CC1` [Example 3-8-13, 6-(7-((1-Methylpiperidin-4-yl)amino)-9H-thioxanthen-4-yl)-4-morpholino pyridin-2 (1H)-one], the figure is 100 to 500 nM; as for `COCCN(C)CCC(Nc1ccc2c(c1)Sc1cccc(-c3cc(N4CCOCC4)cc(=O)[nH]3)c1S2)c1ccc(C)cn1` (single isomer, unassigned) [Example 10-3-3, 6-(7-((3-((2-Methoxyethyl) (methyl)amino)-1-(5-methylpyridin-2-yl)propyl)amino)thiarnthren-l-yl)-4-morpholino pyridin-2(1H)-one], under 100 nM; as for `Cc1cnc(C(CCN(C)C)Nc2ccc3c(c2)Cc2cccc(-c4cc(=O)cc(N5CCOCC5)o4)c2O3)cn1` (single isomer, unassigned) [Example 12-6, 2-(7-((3-(Dimethylamino)-1-(5-methylpyrazine-2-yl)propyl)amino)-9H-xanthen-4-yl)-6-morpholino-4H-pyran-4-one], 100 to 500 nM.
